Data on 17 compounds can be found in PubChem BioAssay (NCI).

The structures appear in SMILES notation. “And” between values parts separate entries of the source, which are not always exact repeats. Identical values can stand only once.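 These data come from cells grown in 96-well plates and exposed to compound for 48 hours at five concentrations. At the GI50, growth is halved. TGI denotes the concentration required for complete inhibition of growth.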

Holding throughout (test): NCI tumour cell line growth inhibition, 48 h
The test system of experiment [1] is EKVX NSCLC.
In experiment [2] the test system is UO-31 renal.
For experiment [3], the system named is KM12 colon.
Experiment [4] deals with SF-268 CNS.
Experiment [5] has as its system HOP-62 NSCLC.
The subject of experiment [6] is DU-145 prostate.
In experiment [7] the test system is TK-10 renal.
In experiment [8] the test system is SW-620 colon.
Experiment [9] concerns UACC-62 melanoma.
Experiment [10] has as its system NCI-H522 lung.

In the case of `Clc1ccc(N=CNc2ccc(-c3nc4ccccc4o3)cc2)cc1`, the GI50 in experiment [1] was 241 nM; in [2], 40.6 µM; in experiment [3], 15.4 µM; in experiment [4], 12.7 µM; in experiment [5] it was greater than 100 µM; in [6], 14 µM. Moreover, the GI50 is 21 µM in experiment [7], 2.9 µM in experiment [8] and 25.3 µM in experiment [9]. In addition, the TGI was 2.84 µM in [1]; greater than 100 µM in [2]; 38.7 µM in experiment [3]; 39 µM in experiment [4]; greater than 100 µM in experiment [5]; 38.2 µM in experiment [6]. The TGI in [7] was 54.2 µM; in [8], 8.16 µM; in [9], greater than 100 µM.

With `N#Cc1ccc(OC(=O)Nc2ccc(Cl)c(Cl)c2)cc1`, the GI50 in experiment [2] is 2.99 µM; in experiment [3], 3.27 µM; in experiment [4] it was 5.27 µM; in experiment [5], 7.5 µM; in [6], 4.13 µM; in experiment [7], 3.85 µM. The GI50 in [8] is 3.31 µM; in [9] it was 3.06 µM. Besides, the TGI in experiment [2] was 24.8 µM; in [3], 12.8 µM; in experiment [4], greater than 100 µM; in experiment [5], 60.7 µM; in [6], greater than 100 µM; in experiment [7] it was 33.9 µM. Besides, the TGI in [8] is greater than 100 µM; in [9], 31.7 µM.

Regarding `O=C1C(Cl)=C(Nc2ccccc2O)C(=O)N1Cc1ccccc1`, the GI50 in experiment [2] is 15.9 µM; in experiment [10] it was 29.1 µM; in experiment [3], 17.8 µM; in experiment [4], 20.8 µM; in experiment [5] it was 18.5 µM; in experiment [6], 18.2 µM. The GI50 in [7] is 28.7 µM; in experiment [9], 19.1 µM. Also, the TGI amounted to 29.3 µM in experiment [2]; 97.2 µM in experiment [10]; 36.2 µM in experiment [3]; 52.2 µM in [4]; 32.6 µM in experiment [5]; 32.1 µM in [6]. Besides, the TGI in experiment [7] is 62.1 µM; in [9] it was 46.4 µM.

On to `CCC(=O)Nc1ccc(N=NN(C)C)cc1`, for which the TGI in [1], in [2], in experiment [10], in experiment [4], in experiment [5] and in experiment [6] was greater than 100 µM throughout. The TGI in experiment [8] and in [9] was greater than 100 µM throughout.

`C=C1CC[C@@H](C(C)C)C[C@@H]2[C@H]([C@H](O)C[C@]2(C)O)[C@@]2(C)CC[C@@H]1O2`: the GI50 in experiment [1] was 28000 nM; in experiment [2] it was 17.3 µM; in [10] it was 15.2 µM; in [3] it was 16.2 µM; in experiment [4], 16.5 µM; in [5], 17.7 µM. Further, the GI50 was 15.8 µM in [6], 21.7 µM in experiment [7] and 20.6 µM in [8]. In addition, the TGI in experiment [1] stood at 55.9 µM; in [2] it was 31.1 µM; in experiment [10], 29.8 µM; in experiment [3] it was 32 µM; in [4], 30.1 µM; in experiment [5] it was 31.6 µM. For the same compound, the values for the TGI in [6], in experiment [7] and in [8] were 31.4 µM, 43.7 µM and 39.9 µM, respectively.

Turning to `C=CCn1c2c(sc1=S)C(S)N=CN2` (stereo not given), the TGI in [1], in [2], in experiment [10], in experiment [3], in experiment [4] and in [5] was greater than 100 µM in each case. Further, the TGI in [7], in experiment [8] and in experiment [9] was greater than 100 µM in each case.

On to `C[C@]12CC[C@@H]3c4ccc(O)c([N+](=O)[O-])c4CC[C@H]3[C@@H]1CC[C@@H]2NS(=O)(=O)c1cccc(Br)c1`, for which the GI50 in experiment [2] was 2.19 µM; in experiment [3] it was 1.89 µM; in experiment [4] it was 2.99 µM; in experiment [5] it was 1.9 µM; in [6], 3.6 µM; in experiment [7], 2.92 µM. For the same compound, the GI50 in [8] is 2.7 µM; in [9], 1.6 µM. Also, the TGI in [2] turned out to be 5.63 µM; in [3], 4.05 µM; in experiment [4], 10.3 µM; in experiment [5], 3.54 µM; in [6], 12.4 µM; in experiment [7], 8.98 µM. In addition, the TGI in experiment [8] stood at 9.42 µM; in experiment [9], 3.69 µM.

In the case of `O=C1C(=O)N(c2cc(Cl)ccc2Cl)C(=O)C(=O)C1c1nc2ccccc2o1`, the TGI in experiment [1] is greater than 100 µM; in experiment [2], greater than 100 µM; in [10], greater than 100 µM; in experiment [3], greater than 31.6 µM; in experiment [4], greater than 100 µM; in experiment [5], greater than 100 µM. Moreover, the TGI in experiment [7], in experiment [8] and in experiment [9] was greater than 100 µM each time.

`Cc1cccc(C)c1NC(=O)C(=O)CC(=O)c1cccc([N+](=O)[O-])c1`: the TGI in experiment [1], in experiment [2], in experiment [10], in experiment [3], in experiment [4] and in experiment [5] was greater than 100 µM each time. For the same compound, the TGI in experiment [7], in [8] and in [9] was greater than 100 µM in each case.

With `COc1cc(C(=O)N2CCc3c([nH]c4c([N+](=O)[O-])c(OC)ccc34)C2C)cc(OC)c1OC` (stereo not given), the TGI in experiment [1], in [2], in experiment [10], in [3], in experiment [4] and in experiment [5] was greater than 100 µM in each case. Moreover, the TGI was greater than 100 µM in experiment [7], greater than 100 µM in experiment [8] and 39.5 µM in experiment [9].

`Cc1cc(C)n(-c2nnc3n2N=C(c2ccc(-c4ccccc4)cc2)CS3)n1`: the GI50 is 3.38 µM in [2]; 2.95 µM in experiment [10]; 3.49 µM in experiment [3]; 3.96 µM in [4]; 6.17 µM in experiment [5]; 3.82 µM in experiment [6]. Besides, the figures for the GI50 in experiment [7], in experiment [8] and in experiment [9] were 2.47 µM, 3.41 µM and 2.49 µM, respectively. The TGI in experiment [2] is greater than 100 µM; in experiment [10] it was 12.9 µM; in experiment [3], greater than 100 µM; in experiment [4], greater than 100 µM; in experiment [5], greater than 100 µM; in experiment [6], greater than 100 µM. Further, the results for the TGI in [7], in experiment [8] and in [9] were 42.2 µM, greater than 100 µM and 6.98 µM, respectively.

Consider `COC1=C(Br)C(=O)c2nc(C)ccc2C1=O`, for which the TGI in experiment [1] was 33.4 µM; in experiment [2], 32.4 µM; in [10], 15.8 µM; in [3], 31.7 µM; in experiment [4], 33.1 µM; in experiment [5] it was greater than 60.3 µM. Also, the TGI in experiment [7] is 32.4 µM; in [8] it was 21.7 µM; in experiment [9], 33.2 µM.

As for `O=S1(=O)OCCOS(=O)(=O)C1Cl`, the TGI in [1], in experiment [2], in experiment [10], in experiment [3], in experiment [4] and in experiment [5] was greater than 100 µM each time. Further, the TGI in experiment [7], in experiment [8] and in [9] was greater than 100 µM throughout.

In the case of `O=C(O)CSc1n[nH]c(Cc2ccccc2)n1`, the TGI in [1], in [2], in [10], in [3], in experiment [4] and in experiment [5] was greater than 100 µM throughout. The TGI in [7], in experiment [8] and in [9] was greater than 100 µM throughout.

Take `COc1cc(C(=O)C/C(CCC(=O)Nc2ccc(Cl)cc2Cl)=N/NC(=O)C(=O)NN)ccc1O`: the TGI in experiment [1], in [2], in experiment [10], in experiment [3], in experiment [4] and in experiment [5] was greater than 100 µM each time. The TGI in experiment [7], in experiment [8] and in experiment [9] was greater than 100 µM throughout.

Consider `CC1=C(C(=O)Nc2ccccc2)C(c2ccc(C3C(C(=O)Nc4ccccc4)=C(C)NC(C)=C3C(=O)Nc3ccccc3)cc2)C(C(=O)Nc2ccccc2)=C(C)N1`, for which the TGI in [1] turned out to be 10.6 µM; in experiment [2], 23.1 µM; in [10], 3.14 µM; in [3] it was 5.01 µM; in experiment [4] it was 5.7 µM; in experiment [5], 10.6 µM. Further, the TGI in experiment [7] was found to be 18.3 µM; in experiment [8], 5.56 µM; in [9], 4.09 µM.

In the case of `CCOc1ccccc1NC(=O)C(C#N)C1=C(Cl)C(=O)c2ccccc2C1=O` (stereo not given), the GI50 in experiment [1] was 2860 nM; in experiment [2] it was 1.51 µM; in [3] it was 2.13 µM; in [7] it was 12.3 µM; in experiment [8], 2.81 µM. Also, the TGI is 2.83 µM and 5.82 µM in experiment [1]; 3.1 µM and 2.86 µM in experiment [2]; 4.22 µM in experiment [10]; 3.23 µM and 4.59 µM in experiment [3]; 4.79 µM in [4]; 19.7 µM in experiment [5]. The TGI in experiment [7] is 3.84 µM and 25.8 µM; in experiment [8] it was 3.45 µM and 6.68 µM; in [9], 3.24 µM and 3.36 µM.
